Measurements from patent publication US9828350B2, “5,6-dihydro-2H-[1,4]oxazin-3-yl-amine derivatives useful as inhibitors of beta-secretase (BACE)” (Janssen Pharmaceutica NV, priority 2010, dated 2017).

Assays:
[1] = molecular target: recombinant BACE1 protein (Homo sapiens, UniProt P56817); assay: Biochemical FRET based assay; details: recombinant BACE1 1 μg/ml, 120 minutes at room temperature, pH 5.0; for IC50: read-out: Biochemical FRET based assay pIC50 (converted)
Method in brief: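 Proteolysis was read as the rise in donor fluorescence (320 nm excitation, 405 nm emission) from T0 to T120, expressed in RFU. The reaction ran 120 minutes at room temperature at pH 5.0 in citrate buffer with 4% DMSO, using […] quenched Swedish APP peptide and 1 μg/ml BACE1.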

Abeta total = assay: Cellular αLisa assay in SKNBE2 cells, Abeta total; format: cell-based, human; details: incubated for 18 hours; for IC50: Homo sapiens, SKNBE2, 18 h, read-out: Cellular αLisa assay in SKNBE2 cells Abetatotal pIC50 (converted)
Method in brief: (§1)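 Secreted Abeta levels were measured by sandwich αLisa, pairing biotin-AbN/25 donor beads with Ab4G8 acceptor beads for total Abeta or cAb42/26 for Abeta 1-42, read at 615 nm after 650 nm excitation following 1 hour. Cells were SKNBE2 expressing wild-type hAPP695, exposed to compound for 18 hours.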

Abeta 1-42 = assay: Cellular αLisa assay in SKNBE2 cells, Abeta 1-42; format: cell-based, human; details: incubated for 18 hours; for IC50: Homo sapiens, SKNBE2, 18 h, read-out: Cellular αLisa assay in SKNBE2 cells Abeta 42 pIC50 (converted)
Method in brief: as §1

P-gp = molecular target: T1, P-gp (Homo sapiens, UniProt P08183); assay: Transepithelial transport of test compounds through LLC-MDR1 monolayers; format: in vitro ADME; details: for efflux ratio at 120 min, 1 μM / Papp A→B at 120 min, 1 μM / Papp B→A at 120 min, 1 μM: pig, LLC-PK1; for efflux ratio at 120 min, 1 μM: read-out: BA/AB; for Papp A→B at 120 min, 1 μM: read-out: A to B (Apparent Permeability, Papp); for Papp B→A at 120 min, 1 μM: read-out: B to A (Apparent Permeability, Papp); for A to B (Apparent Permeability, Papp) / B to A (Apparent Permeability, Papp): 1 μM test compound, 120 minutes; for A to B (Apparent Permeability, Papp): apical to basolateral, absence of GF120918; for B to A (Apparent Permeability, Papp): basolateral to apical
T1 construct: expressed in transfected cells; host or cells: LLC-PK1 cells stably transduced with MDR1 (LLC-MDR1)
Method: Brief Assay Description for the Measurement of Transepithelial Transport of Test Compounds Through LLC-MDR1 Monolayers
The purpose of this assay was to assess both the in vitro passive permeability of test compounds and their ability to be transported substrates of P-gp using LLC-PK1 cells stably transduced with MDR1 in a trans-well system. The positive control for transport was ^3H-digoxin (30 nM) and the positive control inhibitor was GF120918 (5 μM). The marker compound for low permeability was ^14C-Mannitol (1 μM). The test compound concentration was 1 μM.
The integrity of the cellular monolayer was assessed in each incubation well through the inclusion of the fluorescent, low permeability marker compound, Fluorescein.
In detail, LLC-MDR1 cells were seeded on 24-well cell culture inserts (Millicell®-PCF, 0.4 μm, 13 mm diameter, 0.7 cm^2) at 400,000 cells/cm^2. Cell culture medium consisted of Medium 199 supplemented with 10% Foetal Bovine Serum (FBS) and 100 U/ml Penicillin/streptomycin and was replaced the day after seeding and the day before the experiment. The transport experiment was performed 5 days after seeding. On the day of the experiment, solutions of the test compounds were applied to the apical or basolateral side of the monolayers to assess transport in the A to B and B to A directions, respectively. The medium used in the assay was (OPTI-MEM (1×) (GIBCO) with 1 w/v % Bovine Serum Albumin. Inserts were incubated at 37° C. in a humidified incubator containing 5% CO2. Samples from the acceptor and donor compartments were collected after an incubation time of 120 min, to assess the permeability and to allow estimation of the test compound recovery during the experiment, respectively. Transport experiments were performed in triplicate. Absolute test compound concentrations were measured using LC-MS/MS and quantified via a calibration curve.

[2] = LLC-MDR1 monolayers, ratio of B to A and A to B permeation rates

T1 sequence (P08183 whole entry): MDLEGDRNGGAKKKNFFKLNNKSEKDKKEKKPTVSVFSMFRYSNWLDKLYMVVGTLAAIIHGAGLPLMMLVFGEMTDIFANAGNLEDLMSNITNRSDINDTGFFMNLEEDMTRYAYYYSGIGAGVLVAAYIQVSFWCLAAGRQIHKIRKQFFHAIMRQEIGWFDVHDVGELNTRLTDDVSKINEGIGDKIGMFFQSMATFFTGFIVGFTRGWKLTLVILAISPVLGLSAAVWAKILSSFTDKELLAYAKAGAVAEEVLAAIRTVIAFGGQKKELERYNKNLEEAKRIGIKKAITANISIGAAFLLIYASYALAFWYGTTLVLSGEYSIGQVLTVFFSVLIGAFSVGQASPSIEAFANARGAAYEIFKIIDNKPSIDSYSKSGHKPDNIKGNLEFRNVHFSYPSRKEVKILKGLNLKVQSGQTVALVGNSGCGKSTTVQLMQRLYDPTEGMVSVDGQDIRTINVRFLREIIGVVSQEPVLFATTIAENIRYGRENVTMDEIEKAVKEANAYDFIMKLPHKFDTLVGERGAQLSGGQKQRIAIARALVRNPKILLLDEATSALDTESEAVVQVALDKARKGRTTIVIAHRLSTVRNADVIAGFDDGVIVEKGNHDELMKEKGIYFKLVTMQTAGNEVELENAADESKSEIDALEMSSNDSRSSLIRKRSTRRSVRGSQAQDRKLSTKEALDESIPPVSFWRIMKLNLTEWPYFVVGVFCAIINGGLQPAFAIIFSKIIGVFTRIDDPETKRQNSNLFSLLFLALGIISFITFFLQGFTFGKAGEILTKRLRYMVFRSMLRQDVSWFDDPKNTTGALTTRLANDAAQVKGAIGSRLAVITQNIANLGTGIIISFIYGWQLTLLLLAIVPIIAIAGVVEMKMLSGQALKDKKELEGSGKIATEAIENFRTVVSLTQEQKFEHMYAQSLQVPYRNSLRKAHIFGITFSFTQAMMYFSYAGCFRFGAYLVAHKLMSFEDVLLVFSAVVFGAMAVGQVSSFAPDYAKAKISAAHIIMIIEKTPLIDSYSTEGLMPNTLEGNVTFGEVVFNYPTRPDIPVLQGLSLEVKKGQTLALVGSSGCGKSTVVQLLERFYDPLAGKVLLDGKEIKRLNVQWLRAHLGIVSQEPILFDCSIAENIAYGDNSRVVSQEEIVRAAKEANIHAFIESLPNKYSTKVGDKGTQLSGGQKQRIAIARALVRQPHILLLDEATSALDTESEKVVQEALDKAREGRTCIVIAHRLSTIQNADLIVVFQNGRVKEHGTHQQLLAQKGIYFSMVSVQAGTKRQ
Sequence of recombinant BACE1 protein (P56817 46-501): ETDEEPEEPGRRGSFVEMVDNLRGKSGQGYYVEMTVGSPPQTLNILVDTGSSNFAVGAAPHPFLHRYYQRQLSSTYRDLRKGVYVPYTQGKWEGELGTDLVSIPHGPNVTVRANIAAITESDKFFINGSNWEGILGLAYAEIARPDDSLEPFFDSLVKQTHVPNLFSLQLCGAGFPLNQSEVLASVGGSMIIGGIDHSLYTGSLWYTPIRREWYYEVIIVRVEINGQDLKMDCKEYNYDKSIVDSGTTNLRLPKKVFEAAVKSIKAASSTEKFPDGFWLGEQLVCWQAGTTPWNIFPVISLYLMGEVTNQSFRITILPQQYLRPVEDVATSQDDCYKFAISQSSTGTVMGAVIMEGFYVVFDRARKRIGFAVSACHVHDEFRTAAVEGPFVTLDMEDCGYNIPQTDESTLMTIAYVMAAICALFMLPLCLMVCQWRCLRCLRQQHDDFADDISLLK

| SMILES | IC50 [1] [nM] | IC50 (Abeta total) [nM] | IC50 (Abeta 1-42) [nM] | efflux ratio at 120 min, 1 μM (P-gp; [2]) | melting point [°C] | Cellular αLisa assay in SKNBE2 cells Abetatotal pIC50 (Abeta total) | Cellular αLisa assay in SKNBE2 cells Abeta 42 pIC50 (Abeta 1-42) | Papp A→B at 120 min, 1 μM (P-gp) [×10⁻⁶ cm/s] | Papp B→A at 120 min, 1 μM (P-gp) [×10⁻⁶ cm/s] | A to B (Apparent Permeability, Papp) (P-gp; LLC-MDR1 monolayers) [×10⁻⁶ cm/s] | B to A (Apparent Permeability, Papp) (P-gp; LLC-MDR1 monolayers) [×10⁻⁶ cm/s] | Biochemical FRET based assay pIC50 [1] | BA/AB (P-gp; [2]) |
| --- | --- | --- | --- | --- | --- | --- | --- | --- | --- | --- | --- | --- | --- |
| COc1cncc(-c2cccc(C3(C)COCC(N)=N3)c2)c1 (racemic) [Compound 4, rac-5-[3-(5-methoxypyridin-3-yl)phenyl]-5-methyl-5,6-dihydro-2H-1,4-oxazin-3-amine] | 3640 | 219 | 257 | 25.9 | 150 |  |  |  |  |  |  |  |  |
| COc1cncc(-c2cccc(C3(C)N=C(N)COC3F)c2)c1 (single isomer, unassigned) [Compound 93] | 468 |  |  | 4.6 |  | 6.97 | 6.98 | 7.4 | 34.3 |  |  |  |  |
| CC1(c2cc(-c3cncnc3)ccc2F)N=C(N)COC1C(F)(F)F (single isomer, unassigned) [Compound 106] | 4370 |  |  | 1.1 | 173.8 | 6.23 | 6.2 | 18.2 | 19.8 |  |  |  |  |
| CC1(c2cccc(NC(=O)c3ccc(Cl)cn3)c2)N=C(N)COC1(F)C(F)(F)F (single isomer, unassigned) [Compound 113] |  |  |  |  |  | 7.52 | 7.53 | 9 | 9.8 |  |  |  |  |
| COc1cncc(-c2cccc(C3(C)N=C(N)COC3(F)C(F)(F)F)c2)c1 (single isomer, unassigned) [Compound 118] | 191 |  |  | 1.3 |  | 7.18 | 7.23 | 12 | 15 |  |  |  |  |
| COc1cnc(C(=O)Nc2ccc(F)c([C@]3(C)COCC(N)=N3)c2)cn1 [Compound 39] |  |  |  |  |  | 8.38 | 8.27 |  |  | 3.7 | 34.2 |  |  |
| C[C@@]1(c2cc(NC(=O)c3ccc(C#N)cn3)ccc2F)COCC(N)=N1 [Compound 43] |  |  |  |  |  | 8.45 | 8.34 |  |  | 1.4 | 26.6 | 7.14 | 18.5 |
| COc1cncc(-c2cccc(C3(C)N=C(N)COC3F)c2)c1 (stereo not drawn) [Compound 100] | 1550 | 339 | 347 | 3.6 | 139.2 |  |  | 7.6 | 27.4 |  |  |  |  |
| C[C@]1(c2cc(-c3cncnc3)c(F)cc2F)COC2(CC2)C(N)=N1 [Compound 149] | > 30200 | 8910 | 8710 |  | 187.4 |  |  |  |  |  |  |  |  |
| C[C@]1(c2cc(NC(=O)c3ncc(Cl)cc3Cl)ccc2F)N=C(N)CO[C@@]1(F)C(F)(F)F [Compound 181] | 26.3 | 13.5 | 13.5 |  | 200.16 |  |  |  |  |  |  |  |  |
| C[C@]1(c2cc(NC(=O)c3ccc(C#N)cn3)ccc2F)N=C(N)CO[C@@]1(F)C(F)(F)F [Compound 183] | 40.7 | 13.8 | 14.5 |  | 196.01 |  |  |  |  |  |  |  |  |
| COc1cnc(C(=O)Nc2ccc(F)c([C@@]3(C)N=C(N)CO[C@]3(F)C(F)(F)F)c2)cn1 [Compound 184] | 407 | 363 | 363 |  | 198.43 |  |  |  |  |  |  |  |  |
| C[C@]1(c2cc(NC(=O)c3ncc(Cl)cc3Cl)ccc2F)N=C(N)CO[C@]1(F)C(F)(F)F [Compound 185] | 166 | 195 | 200 |  | 165.14 |  |  |  |  |  |  |  |  |
| CC1(c2cc(NC(=O)c3ccc(Cl)cn3)cc(C(F)(F)F)c2)COCC(N)=N1 (stereo not drawn) [Compound 197] | 1000 | 166 | 170 |  | 175.32 |  |  |  |  |  |  |  |  |
